Experimental data published in patent US10358469B2, “Methods and pharmaceutical compositions for the treatment of cancer” (INSERM (INSTITUT NATIONAL DE LA SANTÉ ET DE LA RECHERCHE …, priority 2014, dated 2019).

Columns and labels:
[1] = system: leukemic cells isolated from hMRP8-PML/RARα transgenic mice; assay: Acute promyelocytic leukemia (APL) mouse model, survival; type: in vivo
Protocol: FIG. 9: Antp-AAC-11-LZ (363-399) peptide treatment of leukemic mice protects against disease progression. Mice were challenged with 10^4 leukemic cells isolated from hMRP8-PML/RARα transgenic mice, allowed to engraft for 10 d, and were then injected intraperitonaly each day for 7 consecutive days with Antp-AAC-11-LZ (363-399) peptide (1.8 mg/kg) or vehicle (normal saline solution), or subcutaneously implanted with a 21-d release pellet containing 5 mg ATRA (n=6 for each treatment). Mice were monitored for survival.
We use an established in vivo APL model based on syngenic grafts of leukemic blasts from hMRP8-PML/RARα transgenic mice, as described by Brown et al. (Brown et al., 1997). This model mimics human APL, both in its biological characteristics and its response to conventional therapeutic drugs such as all-trans retinoic acid (ATRA) and 100% of the mice die of the disease (Brown et al., 1997; Kogan et al., 2000; Lallemand-Breitenbach et al., 1999). […] leukemic cells isolated from bone marrow, spleen, or lymph nodes of leukemic hMRP8-PML/RARα transgenic mice (Brown et al., 1997) were injected into the tail vein of 6-7 week old syngeneic FVB/N mice. Establishment of leukemia was assessed by the appearance of high leukocyte and low platelet counts at around day 8 (Brown et al., 1997). Ten days after transplantation, mice implanted with leukemic cells were randomly assigned to either type of treatment (n=6). Antp-AAC-11-LZ (363-399) peptide (1.8 mg/kg) or vehicle (normal saline solution) was injected intraperitonaly each day for 7 consecutive days. Retinoic acid was administrated by subcutaneous implantation of a 21-d release pellet containing 5 mg ATRA (Innovative Research of America). Mice were then monitored for survival.

A549 cells = assay: Lactate dehydrogenase (LDH) release, A549 cells; type: cell-based, human; details: 10 μM
Protocol: (§1) (A) SeAx or HaCat cells cultured in the absence of 10% FBS were left untreated or treated with 4 μM or 10 μM, respectively, of the Antp-AAC-11-LZ (363-399) peptide for the indicated durations. Cells were then analyzed by flow cytometry for PI staining. The results represent the mean number of PI-positive cells±S.D. from at least three independent experiments. (B) A549 and HaCat cells were plated at a densities of 4.5×10^3 in 96 well plates (100 μL total volume per well) and allowed to attach overnight in a 37° C. incubator (5% CO2). Media was removed from cells and replaced with media containing 10 μM Antp-AAC-11-LZ (363-399) peptide (100 μL total volume per well) peptide and the plates were incubated for the indicated durations. Lactate dehydrogenase (LDH) activity released in the culture medium was then assessed and data expressed as a percentage of the maximal level (Max) of LDH activity determined after total cell lysis±S.D. from at least three independent experiments.
(A) SeAx cultured in the absence of 10% FBS were left untreated or treated with 4 μM of the indicated Antp-AAC-11-LZ peptides for various times. Cells were then analyzed by flow cytometry for PI staining. The results represent the mean number of PI-positive cells±S.D. (B) A549 cells were plated at a densities of 4.5×10^3 in 96 well plates (100 μL total volume per well) and allowed to attach overnight in a 37° C. incubator (5% CO2). Media was removed from cells and replaced with media containing the indicated Antp-AAC-11-LZ peptides at 10 μM (100 μL total volume per well) peptide and the plates were incubated for the indicated durations. Lactate dehydrogenase (LDH) activity released in the culture medium was then assessed and data expressed as a percentage of the maximal level (Max) of LDH activity determined after total cell lysis±S.D.

HaCat cells = assay: Lactate dehydrogenase (LDH) release, HaCat cells; type: cell-based; details: 10 μM, FIG. 4B
Protocol: as §1, with “FIG. 4: Antp-AAC-11-LZ (363-399) peptide induced necrotic cell death under low serum conditions. (A)” for “(A)”, “Media was removed from cells and replaced with media containing 10 μM Antp-AAC-11-LZ (363-399) peptide (100 μL total volume per well) peptide and the plates were incubated for the indicated durations.” left out
Cytoplasmic lactate dehydrogenase (LDH) release into the cell culture supernatant occurs upon damage of the plasma membrane, and it is therefore considered a typical hallmark of necrosis. […] LDH activity was measured using the CytoTox 96® assay (Promega) by the reduction of lactate to pyruvate in the presence of NAD^+. […] Visible wavelength absorbance data are collected using a standard 96-well plate reader. […]
Necrosis was further assessed based on lactate dehydrogenase (LDH) activity release in the culture medium. […]

Ac-RQIKIWFKKQNRRMKWKKAKLNAEKLKDFKIRLQYFARGLQVYIRQLRLALQGKT-NH2 [Antp-AAC-11-LZ (363-399)]
mice surviving up to 67 d ([1]; n=6 per treatment): Four of 6
mice surviving up to 76 d ([1]; n=6 per treatment): 2
mean survival time ([1]; peptide 1.8 mg/kg i.p. daily for 7 days, ATRA 5 mg 21-d release pellet s.c., from day 10 after graft, n=6): 68.5 days
LDH release (A549 cells; 5 minutes, relative to maximal LDH release (0.8% Triton X-100)): ~40%
LDH release (A549 cells; 1 hour, compared to maximum LDH release (0.8% Triton X-100)): 80%
LDH release into cell supernatants, in words (A549 cells; time course): drastic increase
LDH release in nonmalignant cells (HaCat cells): little LDH release
